Results from US4093648A, “Therapeutically active benzoic acid derivatives and a process for preparing them” (Recordati S.A. Chemical and Pharmaceutical Company, priority 1975, dated 1978).

Experiments:
[1] = LD50 determination, intraperitoneal, rats; conditions: rat, in vivo, ip
Experimental: (§1) The evaluation of biological data has been carried out by the most accepted test of the cutaneous passive anaphylaxis on the rat. We have followed the method described by J. Mota on Life Science 12,917 (1963) that was appropriately modified. The LD50 determination was carried out with the common method, by administering intraperitoneally the compound to rats. The chromoglycate was used as a standard. In the first column, are listed the LD50 values (mg/Kg), in the second the ratios [formula] in the last column the ratios [formula]

[2] = test system: cutaneous passive anaphylaxis; assay: cutaneous passive anaphylaxis on the rat (antianaphylactic activity vs. sodium chromoglycate standard); format: in vivo; conditions: for Compound activity / Standard activity: ratio to chromoglycate (standard), cutaneous passive anaphylaxis, rat
From the text: The compounds of formula I and their pharmacologically compatible salts show antianaphylactic activity (which is rather remarkable for some of them) that may be successfully employed to prepare pharmaceutical formulations for human use against the allergic asthma and alimentary allergies. In order to evaluate the antianaphylactic activity, we have performed some comparison tests with sodium chromoglycate that is, at the present time, the most known and the most used antiallergic agent.
as §1

[3] = test system: cutaneous passive anaphylaxis; conditions: qualitative statement, no data; cited from earlier work

Row | Compound | LD50 ([1]; intraperitoneally to rats) | Compound activity / Standard activity [2] | LD50 [1] | antianaphylactic activity ([2]; qualitative statement) | activity when administered per os (chromoglycate) [3]
1 | CCOc1ccc(NC(=O)c2cccc(C(=O)CC)c2O)cc1 [Example 2, 2-Hydroxy-3-propionyl (4-ethoxyphenyl)benzamide] | 3000 mg/kg | 1.20 |  |  | 
2 | CCC(=O)c1cccc(C(=O)Nc2ccccc2Cl)c1O [Example 3, 2-Hydroxy-3-propionyl (o-chlorophenyl) benzamide] | 3000 mg/kg | 1.19 |  |  | 
3 | CCC(=O)c1cccc(C(=O)Nc2cccc(Cl)c2)c1O [Example 4, 2-Hydroxy-3-propionyl (m-chlorophenyl) benzamide] | 2700 mg/kg | 1.12 |  |  | 
4 | CCC(=O)c1cccc(C(=O)O)c1OCCN(CC)CC [Example 7, 2(β-diethylamino)ethoxy-3-propionylbenzoic Acid] |  | 1.22 | 3000 mg/kg | most active product of this series | 
5 | O=C(O)c1cc(=O)c2c(OCC(O)COc3cccc4oc(C(=O)O)cc(=O)c34)cccc2o1 [chromoglycate, sodium chromoglycate] |  |  |  |  | inactive
